Assay results reported in patent publication US4051252A, “3-Aminoindazole-1 and 2-carboxylic acid derivatives” (Bayer Aktiengesellschaft, priority 1974, dated 1977).

Tests used:
[1] = Acute Toxicity (oral, mouse); details: in vivo
Text: The pharmacological properties can be conveniently observed in recognized in vivo models.

tails of rats = experiment: Tail Flick Test (analgesic action); type: in vivo; details: Rattus norvegicus; oral, male rats; reaction time of 50% of animals lengthened to at least 20 seconds
Text: Analgesic action can be observed in the tail flick test on the tails of rats in which the tail of male rats is irradiated with a focused heat ray. In this test, untreated animals react after an average irradiation time of 5.1±0.8 seconds (reaction time) by drawing away the tail. Under the influence of analgesically active compounds, this reaction time becomes longer. Active compounds which after administration prolong the reaction time of the animals to at least 20 seconds are considered to be analgesically active. Five animals are employed per dose. The ED50 is the dose which on average lengthens the reaction time of 50% of the animals employed to at least 20 seconds [see generally Wolff et al., J. Clin. Invest., 19, 659-680 (1940)].

rats [2] = experiment: Phenylquinone Writhing Test (analgesic activity); type: in vivo; details: Rattus norvegicus, oral, 60 minutes before phenylquinone i.p., writhing reduced to half of control
Description: Analgesic activity can also be observed in the phenylquinone writhing test in which 100 μg of phenylquinone, dissolved in 0.5 ml of 5% strength alcohol, are injected intraperitoneally into rats. A few minutes after administration, the animals show the characteristic writhing reaction, which consists of the animals showing extreme backward extension of the hind paws, flexing the back and lifting the tail. At the same time, wave-like contractions frequently pass over the abdominal muscles. The inhibition of this writhing syndrome is assessed to be an analgesic effect. The substance to be investigated is administered 30 minutes (in the case of subcutaneous administration) or 60 minutes (in the case of oral administration) before the injection of phenylquinone. Five animals are employed per compound and per dose. The ED50 is the dose at which the number of writhing reactions in the animals employed is on average reduced to half that of the control group [see generally: Siegmung et al., Proc. Soc. exp. Biol. Med. 95, 729-731 (1957)].

rats [3] = experiment: Yeast Antipyretic Test; type: in vivo, rat; details: oral, raised body temperature lowered by 1° C in 50% of animals
Description: Antipyretic action can be observed in rats to which a beer yeast suspension has been administered subcutaneously. The body temperature is measured rectally before and 16 hours after administration of the beer years. The substance to be tested is administered orally to groups of 5 rats in which the body temperature has risen by at least 1° C. Thereafter, the temperature drop is measured rectally with a drop in the body temperature of at least 1° C being assessed as an antipyretic effet. The Ed50 is the dose at which, in 50% of the animals employed, the raised body temperature is lowered by 1° C upon administration of the active substance according to the invention.

paw of rats = experiment: Carrageenin Anti-inflammatory Test (carrageenin edema on the paw of rats); type: in vivo, rat; details: one hour before carrageenin, measured 2 1/2 and 3 hours after carrageenin; for ED50: Rattus norvegicus, po
Description: The anti-inflammatory (antiphlogistic and anti-edematous) action of the compounds can be conveniently observed by the inhibition of carrageenin edema on the paw of rats. In this test, a reference measurement on the normal paws of rats is carried out half an hour before and half an hour after oral administration of the test compound, using an antiphlogmeter. One hour after administration of the substance, the edema is started by injecting a carrageenin solution into the planta pedis of one hind paw at 21/2 hours and 3 hours after the carrageenin injection, the effect on the edematous paw is measured. The relative paw volume is expressed as a percentage of the reference measurement (=100%). The ED50 is the dose at which, in 50% of the animals employed per dose, the difference between the relative paw volume of the treated animals and the relative paw volume of the 10 control groups is 100.

Compound: Nc1n[nH]c2ccc(C(F)(F)F)cc12 [3-amino-5-trifluoromethylindazole, reference compound]
- LD50 [1]: 228 mg/kg
- ED50 (tails of rats): 67 mg/kg
- ED50 (rats [2]): 61 mg/kg
- ED50 (rats [3]): 48 mg/kg

Compound: CCOC(=O)n1nc(N)c2cc(C(F)(F)F)ccc21 [3-amino-5-trifluoromethylindazole-1-carboxylic acid ethyl ester]
- LD50 [1]: > 5000 mg/kg
- ED50 (rats [2]): 1 mg/kg

Compound: CCNC(=O)n1nc(N)c2cc(C(F)(F)F)ccc21 [3-amino-5-trifluoromethylindazole-1-carboxylic acid ethylamide]
- LD50 [1]: > 1000 mg/kg
- ED50 (tails of rats): 53 mg/kg
- ED50 (rats [3]): 51 mg/kg

Compound: COC(=O)n1nc(N)c2cc(C(F)(F)F)ccc21 [3-amino-5-trifluoromethylindazole-1-carboxylic acid methyl ester]
- ED50 (tails of rats): 41 mg/kg
- ED50 (rats [3]): ~50 mg/kg

Compound: CCOC(=O)n1nc(N)c2ccc(Cl)cc21 [3-amino-6-chloroindazole-1-carboxylic acid ethyl ester]
- LD50 [1]: ~2000 mg/kg
- ED50 (paw of rats): ~77 mg/kg
- ED50 (oral), Carrageenin Anti-inflammatory Test (paw of rats): 68 (44-138) mg/kg

Compound: COC(=O)n1nc(N)c2ccc(Cl)cc21 [3-amino-6-chloroindazole-1-carboxylic acid methyl ester]
- LD50 [1]: > 1000 mg/kg
- ED50 (tails of rats): 30 mg/kg
- ED50 (rats [2]): ~10 mg/kg
- ED50 (paw of rats): ~40 mg/kg
- ED50 (rats [3]): ~20 mg/kg

Compound: CCCCOC(=O)n1nc(N)c2ccc(Cl)cc21 [3-amino-6-chloroindazole-1-carboxylic acid n-butyl ester]
- LD50 [1]: > 1000 mg/kg
- ED50 (paw of rats): 67 mg/kg

Compound: CN(C)C(=O)n1nc(N)c2ccc(Cl)cc21 [3-amino-6-chloroindazole-1-carboxylic acid-dimethylamide]
- LD50 [1]: > 1000 mg/kg
- ED50 (rats [3]): 41 mg/kg

Compound: CN(C)C(=O)n1nc2cc(Cl)ccc2c1N [3-amino-6-chloroindazole-2-carboxylic acid dimethylamide]
- ED50 (rats [2]): 17 mg/kg
- ED50 (rats [3]): 23 mg/kg

Compound: CCOC(=O)n1nc(N)c2ccc(C(F)(F)F)cc21 [3-amino-6-trifluoromethylindazole-1-carboxylic acid ethyl ester]
- ED50 (tails of rats): 53 mg/kg
- ED50 (rats [3]): ~50 mg/kg

Compound: CCOC(=O)n1nc(N)c2ccccc21 [3-aminoindazole-1-carboxylic acid ethyl ester]
- LD50 [1]: ~3000 mg/kg
- ED50 (paw of rats): ~47 mg/kg

Compound: CCOC(=O)n1nc(N(C)C)c2ccc(Cl)cc21 [3-dimethylamino-6-chloroindazole-1-carboxylic acid ethyl ester]
- LD50 [1]: > 5000 mg/kg
- ED50 (rats [2]): 17 mg/kg
- ED50 (rats [3]): 5.2 mg/kg

Compound: CN(C)C(=O)n1nc(NC=O)c2ccc(C(F)(F)F)cc21 [3-formylamino-6-trifluoromethyl-1-carboxylic acid dimethylamide]
- ED50 (oral), Carrageenin Anti-inflammatory Test (paw of rats): 92 (44-216) mg/kg

Compound: CN(C)C(=O)n1nc(NC=O)c2cc(C(F)(F)F)ccc21 [3formylamino-5-trifluoromethylindazole-1-carboxylic acid dimethylamide]
- LD50 [1]: > 1000 mg/kg
- ED50 (rats [3]): 14 mg/kg
